Common to all, as to assay type: cell-based, human
The test system of experiment [1] is KRAS G12C in NCI-H358 cells. The experiment is described as follows: pERK inhibition assay, NCI-H358. The settings on record: Homo sapiens, 4 hours incubation. As to the method:
(§1) This assay is to measure the ability of test compounds in inhibiting the phosphorylation of ERK, the downstream signaling of KRAS G12C in NCI-H358 cells, KRAS G12D in AGS cells, and KRAS G12V in SW620. NCI-H358 (ATCC-CRL5807) cells, AGS (ATCC-CRL-1739) cells, SW620 (ATCC-CCL-227) cells were all grown and maintained using RPMI-1640 medium (Thermo Fisher Scientific) with 10% fetal bovine serum and 1% penicillin/streptomycin. On the day prior to compound addition, cells were plated in tissue culture-treated 96 well plates (Corning-3699) at a density of 30,000 cell/well, 20,000 cell/well, 30,000 cell/well for NCI-H358, AGS and SW620 respectively, and allowed for attachment overnight. Diluted compounds were then added in a final concentration of 0.5% DMSO. After 4 hours of incubation, the medium was removed, 100 μL of 4% formaldehyde was added, and the assay plates were incubated at room temperature for 20 minutes. The plates were then washed once with phosphate buffered saline (PBS), and permeabilized with 100 μL of chilled methanol for 10 minutes. Non-specific antibody binding to the plates was blocked using 50 μL 1×BSA blocking buffer (Thermo-37520, 10-fold dilution by Phosphate-Buffered Saline Tween (PBST) for at least 1 hour at room temperature. The amount of phosphor-ERK was determined using an antibody specific for phosphorylated form of ERK. Primary antibody (pERK, CST-4370, Cell Signaling Technology) was diluted 1:300 in blocking buffer, with 50 μL aliquoted to each well, and incubated overnight at 4° C. Cells were washed five times for 5 minutes with PBST. Secondary antibody (HRP-linked anti-rabbit IgG, CST-7074, Cell Signaling Technology) was diluted 1:1000 in blocking buffer, and 50 μL was added to each well and incubated 1-2 hours at room temperature. Cells were washed 5 times for 5 minutes with PBST, 100 μL TMB ELISA substrate (abcam-ab171523) were added and gently shake for 20 minutes. 50 μL stop solution (abcam-ab171529) were added, and then read the signal (OD450) by EnVision. IC50 was determined by fitting a 4-parameter sigmoidal concentration response model.

The test system of the next experiment is KRAS G12D in AGS cells. The experiment is described as follows: pERK inhibition assay, AGS. The settings on record: Homo sapiens, 4 hours incubation. As to the method: as §1
The test system of a further experiment is KRAS G12V in SW620. Put plainly: pERK inhibition assay, SW620. The settings on record: Homo sapiens, SW-620, SW620 cells, 4 hours incubation. As for the experimental part:
as §1

In a further experiment the test system is NCI-H358 cells. The experiment is described as follows: Cell viability assay, NCI-H358. The settings on record: Homo sapiens, NCI-H358, 72 hours, Cell Counting Kit-8, read-out: G12C IC50. As for the experimental part:
(§2) The purpose of this cellular assay was to determine the effects of test compounds on the proliferation of human cancer cell lines NCI-H358 (ATCC-CRL5807) cells, AGS (ATCC-CRL-1739) cells, SW620 (ATCC-CCL-227) over a 3-day treatment period by quantifying the amount of NADPH present at endpoint using Cell Counting Kit-8. Cells were seeded at 5,000 cells/well (NCI-H358), 2,000 cells/well (AGS) 2,000 cells/well (SW620) in 96-well assay plates (Corning-3699) and incubated overnight. On the day of the assay, diluted compounds were then added in a final concentration of 0.5% DMSO. After 72 hours incubation, a tenth of the volume of cell counting kit 8(Dnjindo-CK04) was added into each well. Read the signal (OD450 minus OD650) using EnVision after 2 hours incubation. IC50 was determined by fitting a 4-parameter sigmoidal concentration response model.

Another experiment has as its system AGS cells. The experiment is described as follows: Cell viability assay, AGS. The settings on record: Homo sapiens, 72 hours, Cell Counting Kit-8, read-out: G12D IC50. As for the experimental part: as §2
For orientation: Tetrazolium dyes change colour on reduction, which living cells bring about.

In another experiment the test system is SW620 cells. Put plainly: Cell viability assay, SW620. The settings on record: Homo sapiens, SW-620, SW620, 72 hours, Cell Counting Kit-8, read-out: G12V IC50. As for the experimental part:
as §2

For the molecule `CCn1c(-c2cccnc2[C@H](C)OC)c2c3cc(ccc31)-c1cc(O)cc(c1)C[C@H](NC(=O)[C@H](C(C)C)N(C)C(=O)[C@H]1CCN(C(=O)C(C)=O)C1)C(=O)N1CCC[C@H](N1)C(=O)OCC(C)(C)C2` (atropisomer, axis not shown; (M)) [Example 5, (3S)-N-[(1S)-1-[[(8S,14S)-22-ethyl-4-hydroxy-(21M)-21-[2-[(1S)-1-methoxyethyl]-3-pyridyl]-18,18-dimethyl-9,15-dioxo-16-oxa-10,22,28-triazapentacyclo[18.5.2.12,6.110,14.023,27]nonacosa-1(26),2,4,6(29),20,23(27),24-heptaen-8-yl]carbamoyl]-2-methyl-propyl]-N-methyl-1-(2-oxopropanoyl)pyrrolidine-3-carboxamide], the concentration for half-maximal inhibition (IC50) (usually the concentration that gives 50% inhibition) in experiment [1] came to 0.008 µM; in the experiment with KRAS G12D in AGS cells it was 0.105 µM; in the experiment on KRAS G12V in SW620, 0.026 µM; with NCI-H358 cells, 0.077 µM; with AGS cells, 0.226 µM; with SW620 cells it was 0.057 µM.
As for `C#CC1CN(C(=O)N(C)[C@H](C(=O)N[C@H]2Cc3cc(O)cc(c3)-c3ccc4c(c3)c(c(-c3cccnc3[C@H](C)OC)n4CC)CC(C)(C)COC(=O)[C@@H]3CCCN(N3)C2=O)C(C)C)C1` (atropisomer, axis not shown; (M)) [Example 14, N-[(1S)-1-[[(8S,14S)-22-ethyl-4-hydroxy-(21M)-21-[2-[(1S)-1-methoxyethyl]-3-pyridyl]-18,18-dimethyl-9,15-dioxo-16-oxa-10,22,28-triazapentacyclo[18.5.2.12,6.110,14.023,27]nonacosa-1(26),2,4,6(29),20,23(27),24-heptaen-8-yl]carbamoyl]-2-methyl-propyl]-3-ethynyl-N-methyl-azetidine-1-carboxamide], the IC50 in experiment [1] turned out to be 0.063 µM; in the experiment on KRAS G12D in AGS cells it was 0.529 µM; with KRAS G12V in SW620, 0.106 µM; with NCI-H358 cells it was 0.142 µM; in the experiment with AGS cells, 1.38 µM; in the experiment with SW620 cells, 0.367 µM.
Consider `C#CC1CCN(C(=O)N(C)[C@H](C(=O)N[C@H]2Cc3cc(O)cc(c3)-c3ccc4c(c3)c(c(-c3cccnc3[C@H](C)OC)n4CC)CC(C)(C)COC(=O)[C@@H]3CCCN(N3)C2=O)C(C)C)CC1` (atropisomer, axis not shown; (M)) [Example 15, N-[(1S)-1-[[(8S,14S)-22-ethyl-4-hydroxy-(21M)-21-[2-[(1S)-1-methoxyethyl]-3-pyridyl]-18,18-dimethyl-9,15-dioxo-16-oxa-10,22,28-triazapentacyclo[18.5.2.12,6.110,14.023,27]nonacosa-1(26),2,4,6(29),20,23(27),24-heptaen-8-yl]carbamoyl]-2-methyl-propyl]-4-ethynyl-N-methyl-piperidine-1-carboxamide], for which the IC50 in experiment [1] worked out at 0.032 µM; with KRAS G12D in AGS cells, 0.291 µM; in the experiment on KRAS G12V in SW620, 0.067 µM; with NCI-H358 cells it was 0.089 µM; in the experiment with AGS cells, 1.24 µM; with SW620 cells it was 0.281 µM.
With `C#CC1(F)CCN(C(=O)N(C)[C@H](C(=O)N[C@H]2Cc3cc(O)cc(c3)-c3ccc4c(c3)c(c(-c3cccnc3[C@H](C)OC)n4CC)CC(C)(C)COC(=O)[C@@H]3CCCN(N3)C2=O)C(C)C)CC1` (atropisomer, axis not shown; (M)) [Example 16, N-[(1S)-1-[[(8S,14S)-22-ethyl-4-hydroxy-(21M)-21-[2-[(1S)-1-methoxyethyl]-3-pyridyl]-18,18-dimethyl-9,15-dioxo-16-oxa-10,22,28-triazapentacyclo[18.5.2.12,6.110,14.023,27]nonacosa-1(26),2,4,6(29),20,23(27),24-heptaen-8-yl]carbamoyl]-2-methyl-propyl]-4-ethynyl-4-fluoro-N-methyl-piperidine-1-carboxamide], the IC50 in experiment [1] was determined as 0.043 µM; with KRAS G12D in AGS cells, 0.528 µM; in the experiment with KRAS G12V in SW620, 0.078 µM; in the experiment on NCI-H358 cells, 0.077 µM; in the experiment on AGS cells, 1.17 µM; in the experiment with SW620 cells it was 0.294 µM.
As to `CO[C@@H](C)c1ncccc1-c1c2c3cc(ccc3n1CC(F)(F)F)-c1csc(n1)C[C@H](NC(=O)[C@H](C(C)C)N(C)C(=O)[C@H]1CCN(C(=O)[C@H](F)Cl)C1)C(=O)N1CCC[C@H](N1)C(=O)OCC(C)(C)C2` (atropisomer, axis not shown; (M)) [Example 22, (3S)-1-[(2R)-2-chloro-2-fluoro-acetyl]-N-[(1S)-1-[[(7S,13S)-(20M)-20-[2-[(1S)-1-methoxyethyl]-3-pyridyl]-17,17-dimethyl-8,14-dioxo-21-(2,2,2-trifluoroethyl)-15-oxa-4-thia-9,21,27,28-tetrazapentacyclo[17.5.2.12,5.19,13.022,26]octacosa-1(25),2,5(28),19,22(26),23-hexaen-7-yl]carbamoyl]-2-methyl-propyl]-N-methyl-pyrrolidine-3-carboxamide], the IC50 in experiment [1] came to 0.055 µM; in the experiment on KRAS G12D in AGS cells, 0.199 µM; in the experiment on KRAS G12V in SW620, 0.102 µM; with NCI-H358 cells it was 0.0163 µM; with AGS cells, 0.868 µM; in the experiment on SW620 cells it was 0.255 µM.
Consider `CCn1c(-c2cccnc2[C@H](C)OC)c2c3cc(ccc31)-c1cc(O)cc(c1)C[C@H](NC(=O)[C@H](C(C)C)N(C)C(=O)C1CCN(C(=O)C#CCN3CCOCC3)C1)C(=O)N1CCC[C@H](N1)C(=O)OCC(C)(C)C2` (stereo partly drawn) [RM018, reference compound], for which the IC50 was 0.008 µM in experiment [1]; above 10 µM in the experiment on KRAS G12D in AGS cells; above 1 µM in the experiment on KRAS G12V in SW620; 0.004 µM with NCI-H358 cells; above 10 µM in the experiment on AGS cells; above 1 µM in the experiment with SW620 cells.

Source of the values: US20250163072A1, “MACROCYCLIC COMPOUNDS FOR THE TREATMENT OF CANCER” (Hoffmann-La Roche Inc., priority 2021, published 2025).
